In US11690824B2, “Antibacterial compounds” (THE GENERAL HOSPITAL CORPORATION, priority 2018, dated 2023):

Key:
[1] = test system: A. baumannii ATCC 17978; test: MIC assay; assay type: cell-based, Acinetobacter baumannii; conditions: Acinetobacter baumannii, ATCC17978; A. baumannii ATCC 17978; read-out: Minimum inhibitory concentration
Text: (§1) Bacterial strains, growth conditions, and persister isolation. Methicillin-resistant S. aureus strains, MW2 BAA-1707, ATCC 33591, and JE2, methicillin-susceptible S. aureus strains, NCTC 8325, Newman, and ATCC 29213, vancomycin-resistant S. aureus strain, VRS1, Enterococcus faecium E007, vancomycin-resistant E. faecium strains, C68,^7 WB312, and WC196, Klebsiella pneumoniae WGLW2 (BEI Resources, Manassas, Va., USA), Acinetobacter baumannii ATCC 17978, Pseudomonas aeruginosa PA14, and Enterobacter aerogenes ATCC 13048 were used to test antimicrobial activity (Table 1). S. aureus strains were grown in tryptic soy broth (TSB) (BD, Franklin Lakes, N.J., USA), and E. faecium was grown in brain-heart infusion (BHI) broth (BD, Franklin Lakes, N.J., USA) at 37° C. K. pneumoniae, A. baumannii, P. aeruginosa, and E. aerogenes were grown in Luria Bertani (LB) broth (BD, Franklin Lakes, N.J., USA) at 37° C.
(§2) Minimal inhibitory concentration (MIC) assay. The MICS of antibiotics were determined by the standard micro-dilution method recommended by the Clinical and Laboratory Standards Institute. MIC assays were conducted in biological triplicate.

[2] = test system: human erythrocytes; test: Human blood hemolysis; assay type: cell-based
Experimental: Human blood hemolysis. Hemolytic activity was evaluated as described in a previous study. Briefly, 100 μL of 4% human erythrocytes (Rockland Immunochemicals, Limerick, Pa., USA) was added to 100 μL of 2-fold serial dilutions of compounds in PBS, 0.2% DMSO (negative control), or 2% Triton-X 100 (positive control) in a 96-well plate. The 96-well plate was incubated at 37° C. for 1 h and then centrifuged at 500× g for 5 min. 50 μL of the supernatant was transferred to a fresh 96-well plate, and absorbance of supernatants was measured at 540 nm. Percent hemolysis was calculated using the following equation: (A540 nm of compound treated sample−A540 nm of 0.1% DMSO treated sample)/(A540 nm of 1% Triton X-100 treated sample−A540 nm of 0.1% DMSO treated sample)×100. HC50 (concentration of a compound causing 50% hemolysis) was determined using SigmaPlot 10.0 (Systat Software Inc., San Jose, Calif., USA).

[3] = test system: HepG2; test: Cytotoxicity (WST-1); assay type: cell-based; conditions: 32 μg/ml
Experimental: (§3) Cytotoxicity. […] HepG2 and HKC-8 cells were grown in Dulbecco's modified Eagle F-12 media mixed 1:1 with Ham's F-12 (DMEM/F-12, Life Technologies, Carlsbad, Calif., USA) supplemented with 10% FBS and 4 mM L-glutamine at 37° C. in 5% CO2. For cytotoxicity assays, HepG2 or HKC-8 was cultured in 96-well plates in 100 μL/well of the proper media to reach 70-80% confluence. The cells were then treated with a range of concentrations of nTZDpa or its analogs for 72 h. 10 μL of WST-1 (Roche, Mannheim, Germany) was added per well for the last 4 h of the 72 h period. WST-1 reduction was measured at absorbance 450 nm. The percent […] relative to that of the no-treatment control was calculated. The assay was carried out in biological triplicate.

[4] = test system: HKC-8; test: Cytotoxicity (WST-1); assay type: cell-based; conditions: 32 μg/ml
Experimental: as §3

[5] = test system: P. aeruginosa PA14; test: MIC assay; assay type: cell-based, Pseudomonas aeruginosa; conditions: Pseudomonas aeruginosa; P. aeruginosa PA14; read-out: Minimum inhibitory concentration
Text: as §1, §2

How did the MIC [1] turn out when O=C(O)c1c(Sc2ccccc2)c2cc(Cl)ccc2n1Cc1ccc(Cl)cc1 [nTZDpa] was run?
The MIC was over 64 µg/mL.

What about the “hemolysis of human erythrocytes” value ([2]; 32 μg/ml) of the same compound?
Its value is under 25%.

What about the “toxicity to human erythrocytes” value ([2]; at or below 16 μg/mL) of the same compound?
Its value is “did not show significant toxicity”.

What about the “HC50: median hemolytic concentration” value ([2]; human erythrocytes) of the same compound?
The value was 47 µg/mL.

And the “cell death of HepG2” value [3]?
Its value is about 30%.

And the “cell death of HKC-8” value [4]?
Its value is about 16%.

And the MIC [5]?
Its MIC is over 64 µg/mL.
